Data from patent publication US20120029187A1, “HALOALKYLSULFONANILIDE DERIVATIVE” (Nissan Chemical Industries, Ltd., priority 2009, published 2012).

How the values were obtained:
Format in all cases: in vivo
common ragweed [1] = assay: Test Example 4: herbicidal effect in foliage treatment; conditions: dose 6.3 g/a, three weeks after application
Method in brief: (§1)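 14-day greenhouse-grown plants (25–30° C) sprayed on foliage with diluted EC; dose as g/a; effect graded after 3 weeks.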

beadstraw = assay: as above; conditions: dose 6.3 g/a, three weeks after application
Method in brief: as §1

wild oat [2] = assay: as above; conditions: dose 6.3 g/a, three weeks after application
Method in brief: as §1

Italian ryegrass [3] = assay: as above; conditions: dose 6.3 g/a, three weeks after application
Method in brief: as §1

common lambsquater [4] = assay: as above; conditions: dose 6.3 g/a, three weeks after application
Method in brief: as §1

common chickweed [5] = assay: as above; conditions: dose 6.3 g/a, three weeks after application
Method in brief: as §1

water foxtail [6] = assay: as above; conditions: dose 6.3 g/a, three weeks after application
Method in brief: as §1

barnyardgrass [7] = assay: as above; conditions: dose 6.3 g/a, three weeks after application
Method in brief: as §1

giant foxtail [8] = assay: as above; conditions: dose 6.3 g/a, three weeks after application
Method in brief: as §1

large crabgrass [9] = assay: as above; conditions: dose 6.3 g/a, three weeks after application
Method in brief: as §1

redroot pigweed [10] = assay: as above; conditions: dose 6.3 g/a, three weeks after application
Method in brief: as §1

barnyardgrass [11] = assay: Test Example 2: herbicidal effects during the vegetation period under submerged conditions; conditions: treatment during the vegetation period under submerged conditions; dose 2.52 g/a
Method in brief: (§2)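 Barnyardgrass, bulrush and ducksalad were co-sown in alluvial soil flooded to 4 cm and grown in a greenhouse at 25 to 30° C. At the 1- or 2-leaf stage, water-diluted emulsifiable concentrates went onto the water surface at set doses (g/a). Herbicidal effect was scored three weeks later on a graded scale.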

ducksalad [12] = assay: as above; conditions: treatment during the vegetation period under submerged conditions; dose 2.52 g/a
Method in brief: as §2

bulrush [13] = assay: as above; conditions: treatment during the vegetation period under submerged conditions; dose 2.52 g/a
Method in brief: as §2

transplanted rice = assay: Test Example 1: preemergence treatment under submerged conditions, effect on crop; conditions: dose 2.52 g/a
Method in brief: (§3)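 Flooded-paddy preemergence assay; EC diluted with water, surface-applied at weed seeding; doses g/a; rice transplanted at 2.5 leaves; 0–5 mortality score after 3 weeks.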

barnyardgrass [14] = assay: Test Example 1: herbicidal effects in preemergence treatment under submerged conditions; conditions: dose 2.52 g/a
Method in brief: as §3

ducksalad [15] = assay: as above; conditions: dose 2.52 g/a
Method in brief: as §3

bulrush [16] = assay: as above; conditions: dose 2.52 g/a
Method in brief: as §3

common ragweed [17] = assay: Test Example 3: herbicidal effects in soil treatment; conditions: dose 6.3 g/a
Method in brief: (§4)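 Seeds were sown in sterilized diluvial soil and covered with about 1.5 cm of soil. Compounds, formulated as emulsifiable concentrates and diluted with water, were sprayed evenly over the soil surface at set doses in g/a. Herbicidal effect was scored on a rating scale three weeks later.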

wild oat [18] = assay: as above; conditions: dose 6.3 g/a
Method in brief: as §4

Italian ryegrass [19] = assay: as above; conditions: dose 6.3 g/a
Method in brief: as §4

common lambsquater [20] = assay: as above; conditions: dose 6.3 g/a
Method in brief: as §4

common chickweed [21] = assay: as above; conditions: dose 6.3 g/a
Method in brief: as §4

water foxtail [22] = assay: as above; conditions: dose 6.3 g/a
Method in brief: as §4

barnyardgrass [23] = assay: as above; conditions: dose 6.3 g/a
Method in brief: as §4

giant foxtail [24] = assay: as above; conditions: dose 6.3 g/a
Method in brief: as §4

large crabgrass [25] = assay: as above; conditions: dose 6.3 g/a
Method in brief: as §4

redroot pigweed [26] = assay: as above; conditions: dose 6.3 g/a
Method in brief: as §4

| SMILES | J: common ragweed, herbicidal effect (common ragweed [1]) | O: beadstraw, herbicidal effect (beadstraw) | F: wild oat, herbicidal effect (wild oat [2]) | H: Italian ryegrass, herbicidal effect (Italian ryegrass [3]) | L: common lambsquater, herbicidal effect (common lambsquater [4]) | N: common chickweed, herbicidal effect (common chickweed [5]) | G: water foxtail, herbicidal effect (water foxtail [6]) | A: barnyardgrass, herbicidal effect (barnyardgrass [7]) | E: giant foxtail, herbicidal effect (giant foxtail [8]) | D: large crabgrass, herbicidal effect (large crabgrass [9]) | K: redroot pigweed, herbicidal effect (redroot pigweed [10]) | A: barnyardgrass, herbicidal effect (evaluation scale 0-5) (barnyardgrass [11]) | C: ducksalad, herbicidal effect (evaluation scale 0-5) (ducksalad [12]) | B: bulrush, herbicidal effect (evaluation scale 0-5) (bulrush [13]) | a: transplanted rice, effect on crop (evaluation scale 0-5) (transplanted rice) | A: barnyardgrass, herbicidal effect (evaluation scale 0-5) (barnyardgrass [14]) | C: ducksalad, herbicidal effect (evaluation scale 0-5) (ducksalad [15]) | B: bulrush, herbicidal effect (evaluation scale 0-5) (bulrush [16]) | J: common ragweed, herbicidal effect (evaluation scale 0-5) (common ragweed [17]) | F: wild oat, herbicidal effect (evaluation scale 0-5) (wild oat [18]) | further results |
| --- | --- | --- | --- | --- | --- | --- | --- | --- | --- | --- | --- | --- | --- | --- | --- | --- | --- | --- | --- | --- | --- |
| CC1(C)CC(=O)N(Cc2ccccc2N(C(=O)c2ccccc2)S(=O)(=O)C(F)(F)F)CO1 [II-21] | 5 (mortality of 90% or above (nearly complete death)) | 4 (mortality of at least 70% and less than 90%) | 0 (mortality of less than 5% (almost ineffective)) | 4 (mortality of at least 70% and less than 90%) | 4 (mortality of at least 70% and less than 90%) | 4 (mortality of at least 70% and less than 90%) | 5 (mortality of 90% or above (nearly complete death)) | 5 (mortality of 90% or above (nearly complete death)) | 4 (mortality of at least 70% and less than 90%) | 4 (mortality of at least 70% and less than 90%) | 2 (mortality of at least 20% and less than 40%) | 5 (mortality of 90% or above (nearly complete death)) | 5 (mortality of 90% or above (nearly complete death)) | 5 (mortality of 90% or above (nearly complete death)) | 0 (mortality of less than 5% (almost ineffective)) | 5 (mortality of 90% or above (nearly complete death)) | 5 (mortality of 90% or above (nearly complete death)) | 5 (mortality of 90% or above (nearly complete death)) | 5 (mortality of 90% or above (nearly complete death)) | 0 (mortality of less than 5% (almost ineffective)) | H: Italian ryegrass, herbicidal effect (evaluation scale 0-5) (Italian ryegrass [19]): 5 (mortality of 90% or above (nearly complete death)); L: common lambsquater, herbicidal effect (evaluation scale 0-5) (common lambsquater [20]): 0 (mortality of less than 5% (almost ineffective)); N: common chickweed, herbicidal effect (evaluation scale 0-5) (common chickweed [21]): 4 (mortality of at least 70% and less than 90%); G: water foxtail, herbicidal effect (evaluation scale 0-5) (water foxtail [22]): 5 (mortality of 90% or above (nearly complete death)); A: barnyardgrass, herbicidal effect (evaluation scale 0-5) (barnyardgrass [23]): 5 (mortality of 90% or above (nearly complete death)); E: giant foxtail, herbicidal effect (evaluation scale 0-5) (giant foxtail [24]): 3 (mortality of at least 40% and less than 70%); D: large crabgrass, herbicidal effect (evaluation scale 0-5) (large crabgrass [25]): 5 (mortality of 90% or above (nearly complete death)) |
| CC(C)COC(=O)N(c1ccccc1CN1COC(C)CC1=O)S(=O)(=O)C(F)(F)F (stereo not shown) [II-8] | 4 (mortality of at least 70% and less than 90%) | 1 (mortality of at least 5% and less than 20%) | 0 (mortality of less than 5% (almost ineffective)) | 0 (mortality of less than 5% (almost ineffective)) | 5 (mortality of 90% or above (nearly complete death)) | 1 (mortality of at least 5% and less than 20%) | 5 (mortality of 90% or above (nearly complete death)) | 5 (mortality of 90% or above (nearly complete death)) | 4 (mortality of at least 70% and less than 90%) | 5 (mortality of 90% or above (nearly complete death)) | 0 (mortality of less than 5% (almost ineffective)) | 5 (mortality of 90% or above (nearly complete death)) | 4 (mortality of at least 70% and less than 90%) | 5 (mortality of 90% or above (nearly complete death)) | 0 (mortality of less than 5% (almost ineffective)) | 5 (mortality of 90% or above (nearly complete death)) | 5 (mortality of 90% or above (nearly complete death)) | 5 (mortality of 90% or above (nearly complete death)) | 5 (mortality of 90% or above (nearly complete death)) | 0 (mortality of less than 5% (almost ineffective)) | H: Italian ryegrass, herbicidal effect (evaluation scale 0-5) (Italian ryegrass [19]): 0 (mortality of less than 5% (almost ineffective)); L: common lambsquater, herbicidal effect (evaluation scale 0-5) (common lambsquater [20]): 4 (mortality of at least 70% and less than 90%); N: common chickweed, herbicidal effect (evaluation scale 0-5) (common chickweed [21]): 3 (mortality of at least 40% and less than 70%); G: water foxtail, herbicidal effect (evaluation scale 0-5) (water foxtail [22]): 5 (mortality of 90% or above (nearly complete death)); A: barnyardgrass, herbicidal effect (evaluation scale 0-5) (barnyardgrass [23]): 5 (mortality of 90% or above (nearly complete death)); E: giant foxtail, herbicidal effect (evaluation scale 0-5) (giant foxtail [24]): 4 (mortality of at least 70% and less than 90%); D: large crabgrass, herbicidal effect (evaluation scale 0-5) (large crabgrass [25]): 4 (mortality of at least 70% and less than 90%); K: redroot pigweed, herbicidal effect (evaluation scale 0-5) (redroot pigweed [26]): 0 (mortality of less than 5% (almost ineffective)) |
